According to patent publication US6083964A, “Optical resolution of racemic aminoalkylpyridine anticonvulsants and (+) aminoalkylpyridine enantiomers as highly potent orally effective anticonvulsant drugs and excitatory amino acid antagonists” (K and K Biosciences, Inc., priority 1999, dated 2000):
Read-outs that look alike come from different tables or passages of the source.

What was measured:
hippocampal kindled rats = assay: Toxicity in hippocampal kindled rats, i.p.; assay type: in vivo; settings: 100 mg/kg i.p., 45 min
Procedure: The (+) AAP enantiomer, compound 1 in Table 1, was tested in the hippocampal kindled rat, by the i.p. route. […]

[1] = test system: maximal electroshock seizure (MES) in mice; assay: Maximal electroshock seizure (MES) test, mice, i.p.; assay type: in vivo, mouse (male Carworth Farms #1); settings: for P.I. (protective index, TD50/ED50): MES; for ED50: MES test
Description: The (+) AAP enantiomers obtained by optical resolution of racemic AAPs and the resulting highly orally effective anticonvulsant compositions of this invention are useful in the treatment of convulsive disorders. […] A series of (+) AAP enantiomers and (-) AAP enantiomers of this invention has been evaluated for anticonvulsant activity by the intraperitoneal (i.p.) and by the oral (p.o.) route using two standard seizure models in the mouse and in the rat, the maximal electroshock seizure (MES) test and the subcutaneous pentylenetetrazol (Metrazole) seizure threshold (scMet) test. […] The following Table 2 presents the results of these anticonvulsant tests with respect to several (+) and (-) AAP enantiomeric compounds derived from optical resolution of racemic AAPs of the present invention. This Table 2 identifies the specific compounds tested by their chemical name and provides the test model, the route of administration, the animal species used, and the anticonvulsant activity and toxicity in terms of ED50 and TD50 values, (the median effective and toxic dose respectively), when intraperitoneally administered to mice, and when orally administered to rats. In mice, i.p.: All compounds are emulsified in 0.5% methylcellulose. The solvent has been tested for anticonvulsant and toxic effects and found to introduce no significant bias into the testing of anticonvulsant activity. The compounds are administered intraperitoneally in a volume of 0.01 ml/gm to male Carworth Farms #1 mice weighing about 20 gm. All compounds are tested at least at three dose levels (30, 100 and 300 mg/kg) at 30 minutes and 4 hours after their administration. The Maximal Electroshock Seizure Test (MES): Maximal electroshock seizures are elicited with a 60 Hz alternating current of 50 mA intensity in mice and about 150 mA intensity in rats (5-7 times that necessary to elicit minimal electroshock seizures), delivered for 0.2 sec via corneal electrodes. A drop of 0.9% saline is instilled in the eye prior to application of the electrodes in order to […]. Abolition of the hind limb tonic extension component of the seizure is defined as protection and results are expressed as number of animals protected/number of animals tested. The Subcutaneous Pentylenetetrazol (Metrazole) Seizure Threshold Test (scMet): A 0.5% solution of 85 mg/kg of pentylenetetrazol is administered subcutaneously in the posterior midline 30 minutes or 4 hours after drug administration to the animal. […] Anticonvulsant Quantification in Mice i.p.: The ED50 values are determined in the MES, scMet and rotorod ataxia test. To determine the ED50 values, five logarithmically spaced doses of the test compound are administered to animals (male Carworth Farms #1 mice) in groups of eight, to cover 0-100% protection, and the dose required to protect 50% of the animals (ED50) together with its 95% confidence limits, is determined graphically.

[2] = Neurological deficit, positional sense test and gait and stance test, rats, p.o.; set-up: species or system rat (Sprague-Dawley); settings: rat, in vivo, po
Procedure: (§1) Neurotoxicity is determined by the rotorod ataxia test in mice and by the positional sense test and gait and stance test in the rat. The following Table 2 presents the results of these anticonvulsant tests with respect to several (+) and (-) AAP enantiomeric compounds derived from optical resolution of racemic AAPs of the present invention. This Table 2 identifies the specific compounds tested by their chemical name and provides the test model, the route of administration, the animal species used, and the anticonvulsant activity and toxicity in terms of ED50 and TD50 values, (the median effective and toxic dose respectively), when intraperitoneally administered to mice, and when orally administered to rats. […] This species will be the subject of the complete anticonvulsant quantification test evaluation as described above, but after oral (gavage) administration of the candidate compound. […] Neurological deficit in rats is examined by the positional sense test and gait and stance test. […] Inability to do so rapidly indicates a neurologic deficit. In the gait and stance test, a neurologic deficit is indicated by a circular or a zigzag gait, ataxia, abnormal spread of the legs, abnormal body posture, tremor, hyperactivity, lack of exploratory behavior, somnolence, stupor, or catalepsy.

[3] = Neurotoxicity, rotorod ataxia test, mice, i.p.; set-up: species or system mouse (male Carworth Farms #1); settings: mouse, in vivo, ip, TD50
Procedure: (§2) Neurotoxicity is determined by the rotorod ataxia test in mice and by the positional sense test and gait and stance test in the rat. The following Table 2 presents the results of these anticonvulsant tests with respect to several (+) and (-) AAP enantiomeric compounds derived from optical resolution of racemic AAPs of the present invention. This Table 2 identifies the specific compounds tested by their chemical name and provides the test model, the route of administration, the animal species used, and the anticonvulsant activity and toxicity in terms of ED50 and TD50 values, (the median effective and toxic dose respectively), when intraperitoneally administered to mice, and when orally administered to rats. In mice, i.p.: All compounds are emulsified in 0.5% methylcellulose. The solvent has been tested for anticonvulsant and toxic effects and found to introduce no significant bias into the testing of anticonvulsant activity. The compounds are administered intraperitoneally in a volume of 0.01 ml/gm to male Carworth Farms #1 mice weighing about 20 gm. All compounds are tested at least at three dose levels (30, 100 and 300 mg/kg) at 30 minutes and 4 hours after their administration. Neurotoxicity is evaluated in mice by the rotorod ataxia test. The animal is placed on a wooden rod of 1 and 1/8 diameter rotating at 6 rpm. Normal mice can remain on a rod rotating at this speed indefinitely. […] Anticonvulsant Quantification in Mice i.p.: The ED50 values are determined in the MES, scMet and rotorod ataxia test. To determine the ED50 values, five logarithmically spaced doses of the test compound are administered to animals (male Carworth Farms #1 mice) in groups of eight, to cover 0-100% protection, and the dose required to protect 50% of the animals (ED50) together with its 95% confidence limits, is determined graphically.

[4] = test system: neurological deficit in rats; assay: Neurological deficit, positional sense test and gait and stance test, rats, p.o.; set-up: species or system rat (Sprague-Dawley); settings: rat, in vivo, po
Procedure: as §1

[5] = test system: neurotoxicity (rotorod ataxia) in mice; assay: Neurotoxicity, rotorod ataxia test, mice, i.p.; set-up: species or system mouse (male Carworth Farms #1); settings: mouse, in vivo, ip
Procedure: as §2

SMILES | toxic (number of animals) (hippocampal kindled rats) | P.I. (protective index, TD50/ED50) ([1]; listed as (1) (+) Enantiomer) | ED50 ([1]; Mus musculus, ip, read-out: ED50) [mg/kg] | TD50 [2] [mg/kg] | TD50 [3] [mg/kg] | ED50 ([1]; listed as (1) (-) Enantiomer) [mg/kg] | P.I. (protective index, TD50/ED50) ([1]; listed as (1) (-) Enantiomer) | TD50 [4] [mg/kg] | TD50 [5] [mg/kg]
CC(Nc1ccc(Cl)cc1)c1ccncc1 (single isomer, unassigned; (+)) [Compound 1, (+) N-(4-Chlorophenyl)-1-(4-pyridyl)ethylamine] | 2/7 | 4.2 | 35.9 | > 500 | 149 |  |  |  | 
CC(Nc1ccc(Cl)cc1)c1ccncc1 (single isomer, unassigned; (-)) [Compound 2, (-) N-(4-Chlorophenyl)-1-(4-pyridyl)ethylamine] |  |  |  |  |  | 60.3 | 3.6 | > 500.0 | 219.4
